The values below come from patent publication US5073566A, “Angiotensin II antagonist 1,3-imidazoles and use thereas” (Eli Lilly and Company, priority 1989, dated 1991).

Read-outs that look alike come from different tables or passages of the source.

In one assay the test system is angiotensin II receptor. Briefly: Adrenal Glomerulosa Test System: I125-angiotensin II binding to adrenal membranes. Conditions: percent inhibition of I125 angiotensin binding at 10^-5 M of antagonist; rat adrenal membranes; 0.1 nM I125-angiotensin II.
The target in assay [1] is T1, angiotensin-induced vasoconstriction (rabbit aorta) (Oryctolagus cuniculus, UniProt P34976).
T1 construct: the thoracic aortas were removed and cleaned of excess fat and connective tissue; from tissue; host or cells: thoracic aorta rings of New Zealand white rabbits
T1 sequence (P34976 1-359): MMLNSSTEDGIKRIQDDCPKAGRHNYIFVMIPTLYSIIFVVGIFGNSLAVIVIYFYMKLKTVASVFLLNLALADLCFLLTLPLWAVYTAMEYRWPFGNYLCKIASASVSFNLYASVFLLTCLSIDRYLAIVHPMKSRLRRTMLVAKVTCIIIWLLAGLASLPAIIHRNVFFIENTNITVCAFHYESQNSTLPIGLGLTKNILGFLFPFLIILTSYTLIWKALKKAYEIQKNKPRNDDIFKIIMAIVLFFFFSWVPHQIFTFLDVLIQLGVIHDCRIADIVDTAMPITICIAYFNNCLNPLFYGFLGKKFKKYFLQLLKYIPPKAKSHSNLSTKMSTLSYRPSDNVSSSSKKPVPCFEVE
The experiment in a line: Rabbit Aorta Test System: antagonism of angiotensin II-induced contraction of aortic rings. The class given is cell-based, New Zealand white rabbits.
Experimental: The ability to antagonize angiotensin-induced vasoconstriction was evaluated in the rabbit aorta test system.
New Zealand white rabbits (Hazelton, 2-3 kg) were sacrificed by cervical dislocation and the thoracic aortas were removed and cleaned of excess fat and connective tissue. Rings of tissue (3 mm wide) were mounted in 10 ml tissue baths between 2 L-shaped stainless steel hooks. The lower hook was attached to a stationary rod and the upper hook to a force displacement transducer (Grass model FT.03). The bath chambers were maintained at 37° C., aerated with 95% O2 /5% CO2, and contained physiological solution of the following composition (mM): NaCl, 117; glucose, 5.6; NaH2 PO4, 1.0; MgSO4, 0.7; KCl, 5.2; CaCl2, 1.8; NaHCO3, 26; and phentolamine HCl, 0.003.
Rings were equilibrated for 1 hour with 2 g of tension. During the equilibration period, the tissues were washed by overflow every 15 minutes. Rings were then exposed to 10^-8 M angiotensin II (AII) and were allowed to contract until a steady state was reached. Tissues were then washed every 15 minutes for 1 hour. This was repeated every hour until the AII response stabilized. A cumulative concentration-response curve to AII (10^-10 to 10^-7 M) was then obtained. At the conclusion of the concentration-response curve, tissues were washed every 2 minutes until baseline tension was reached, then every 15 minutes for 30 minutes. Compounds were added in a volume of 10 μl DMSO and allowed to incubate for 30 minutes before repeating the concentration-response curve to AII. Contractions to AII were expressed as a percent of the maximum contraction obtained in the control curve (the first AII concentration-response curve). EC50 's (concentration that contracted the tissues to 1/2 the control maximum) for each curve were calculated using a 4 parameter logistics model (NonLin, SAS institute).

Setting [2] is: pA2 = -log KB, KB = [molar concentration of antagonist]/[(EC50 AII with antagonist/EC50 AII without antagonist)-1], 30 min incubation, AII 10^-10 to 10^-7 M, read-out: Rabbit Aorta (pA2) (converted).

Experimental for angiotensin II receptor: The ability for compounds of Formula I to block angiotensin II receptor binding was determined using the adrenal glomerulosa assay.
Binding of I^125 -angiotensin II to adrenal membranes was routinely carried out in 96-well filtration plates. Adrenal membranes were prepared from the capsular portion (glomerulosal layer attached) of rat adrenal glands by differential centrifugation. Briefly, capsules were homogenized in a solution containing sucrose, 250 mM; MgCl2, 1 mM; and tris, 5 mM at pH 7.5 and 4° C. using a polytron at setting 5 for 20 seconds. The homogenate was stirred, gently, for 15 minutes at 4° C. and then centrifuged 10 minutes, at 1000×g, 4° C. The supernatant was centrifuged 30 minutes, at 30,000 ×g, 4° C. and the resulting pellet resuspended in 50 mM tris. Membrane preparations were stored in aliquots at -70° C. until used. Binding of I^125 -angiotensin II to adrenal membranes was performed at room temperature for 90 minutes in 96-well plates containing a hydrophilic polyvinylidene fluoride membrane (0.45 μm, millipore-GV multiscreen). Each 250 μl incubate contained the following (final concentration): tris, 50 mM; NaCl, 120 mM; MgCl2, 5 mM; dithiothrietol 1 mM; bovine serum albumin, 0.05%; I^125 -angiotensin II, 0.1 nM; and adrenal membrane protein, 8-15 μg. Antagonists were added in concentrations from 10 nM to 100 μM. Non-specific binding was measured in the presence of 0.1 μM Sar1, Ile8 angiotensin II. Binding was terminated by vacuum filtration. Receptor-ligand complex trapped on filters was washed 3 times with 300 μl ice-cold wash solution (tris, 50 mM; NaCl, 120 mM; MgCl2, 5 mM; dithiothrietol, 1 mM). Filter discs were dried, punched out and counted in a gamma counter at 52% efficiency. Specific binding represented 96% of total binding (approximately 150 fmol angiotensin II/mg protein). Data are expressed as the percent inhibition of I^125 angiotensin binding at 10^-5 M of antagonist.

For `CCCCCCC(C(=O)O)c1ccc(NC(=O)C2(O)c3ccccc3-c3ccccc32)cc1` (stereo not drawn) [Example 46, α-Hexyl-4-[(9-hydroxy-9H-fluoren-9-ylcarbonyl)-amino]benzeneacetic acid], the “Adrenal Glomerulosa (% Inhibition of Binding)” value in the assay on angiotensin II receptor is on record as 39%. This compound also came in with a Kb in assay [1] of 43.7 µM.

With `CCCCCCC(C(=O)O)n1nnc(NC(=O)c2ccccc2C(=O)O)n1` (stereo not drawn) [Example 47, 5-[(2-Carboxybenzoyl)amino]-α-hexyl-2H-tetrazole-2-acetic acid], the “Adrenal Glomerulosa (% Inhibition of Binding)” value in the assay on angiotensin II receptor amounted to 39%. In assay [1] (setting [2]), the Kb is 5.01 µM.

With `CCCCCCC(c1nnn[nH]1)n1cnc(C(=O)NC(c2ccccc2)c2ccccc2)c1` (stereo not drawn) [Example 48, 1-[1-(Tetrazol-5-yl)heptyl]-N-(diphenylmethyl)-1H-imidazole-4-carboxamide], the “Adrenal Glomerulosa (% Inhibition of Binding)” value in the assay on angiotensin II receptor came out at 61%. Besides, the Kb in assay [1] (setting [2]) was 12 µM.

Take `CCCCCCC(c1cccc(C(=O)NC(c2ccccc2)c2ccccc2)c1)c1nnn[nH]1` (stereo not drawn) [Example 49, N-(Diphenylmethyl)-3-[1-(tetrazol-5-yl)-heptyl]benzamide]: the “Adrenal Glomerulosa (% Inhibition of Binding)” value in the assay with angiotensin II receptor came to 9%. Moreover, the Kb in assay [1] (setting [2]) is 40.7 µM.

As for `CCCCCCC(c1nn[nH]n1)n1cnc(NC(=O)c2ccccc2C(=O)O)c1` (stereo not drawn) [Example 50, 2-[({1-[1-(Tetrazol-5-yl)heptyl]-1H-imidazol-4-yl}amino)carbonyl]benzoic acid hemihydrate], in the assay on angiotensin II receptor, the “Adrenal Glomerulosa (% Inhibition of Binding)” value is given as 42%. In addition, in assay [1] (setting [2]), the Kb was 0.851 µM.

As to `CCCCCCC(C(=O)O)n1cnc(NC(=O)C(c2ccccc2)c2ccccc2)c1.Cl` (stereo not drawn) [Example 51, α-Hexyl-4-[(diphenylacetyl)amino]-1H-imidazole-1-acetic acid hydrochloride], the “Adrenal Glomerulosa (% Inhibition of Binding)” value in the assay with angiotensin II receptor worked out at 80%. For the same compound, in assay [1] (setting [2]), the Kb was 2.69 µM.

Regarding `CCCCCCC(C(=O)O)n1cnc(C(=O)NC(c2ccccc2)c2ccccc2)n1.Cl` (stereo not drawn) [Example 52, α-Hexyl-3-{[(diphenylmethyl)amino]carbonyl}-1H-1,2,4-triazole-1-acetic acid hydrochloride], the “Adrenal Glomerulosa (% Inhibition of Binding)” value in the assay on angiotensin II receptor is reported as 44%. The Kb in assay [1] (setting [2]) is 8.32 µM.

With `CCCCCCC(C(=O)O)n1ccc(C(=O)NC(c2ccccc2)c2ccccc2)c1` (stereo not drawn) [Example 53, 3-{[(Diphenylmethyl)amino]carbonyl}-α-hexyl-1H-pyrrole-1-acetic acid], the “Adrenal Glomerulosa (% Inhibition of Binding)” value in the assay with angiotensin II receptor is reported as 42%. Moreover, the Kb in assay [1] (setting [2]) is 6.03 µM.

As to `CCCCCCC(C(=O)O)n1cc(C(=O)NC(c2ccccc2)c2ccccc2)cn1` (stereo not drawn) [Example 54, 4-{[(Diphenylmethyl)amino]carbonyl}-α-hexyl-1H-pyrazole-1-acetic acid], the “Adrenal Glomerulosa (% Inhibition of Binding)” value in the assay with angiotensin II receptor came out at 40%. The Kb in assay [1] (setting [2]) is 13.8 µM.

`CCCCCC(C(=O)O)c1ccc(Oc2ccccc2C(=O)O)cc1` (stereo not drawn) [Example 55, α-Pentyl-4-(2-carboxyphenoxy)phenylacetic acid]: the “Adrenal Glomerulosa (% Inhibition of Binding)” value with angiotensin II receptor was 13%. In assay [1] (setting [2]), the Kb was 1.26 µM.

For `CCCCCCC(C(=O)O)c1ccc(C(=O)c2ccccc2C(=O)O)cc1` (stereo not drawn) [Example 56, α-Hexyl-4-(2-carboxybenzoyl)benzeneacetic acid], the “Adrenal Glomerulosa (% Inhibition of Binding)” value with angiotensin II receptor is reported as 75%. Further, the Kb in assay [1] (setting [2]) is 1.05 µM.

Take `CCCCCCC(C(=O)O)n1cnc(C(=O)NC2CCc3ccccc32)c1.Cl` (stereo not drawn) [Example 57, 4-{[(2,3-Dihydro-1H-inden-1-yl)amino]-carbonyl}-α-hexyl-1H-imidazole-1-acetic acid hydrochloride]: in the assay on angiotensin II receptor, the “Adrenal Glomerulosa (% Inhibition of Binding)” value is on record as 77%. In addition, the Kb in assay [1] (setting [2]) is 2.63 µM.

Consider `CCCCCCC(C(=O)O)n1cnc(C(=O)NC(c2ccccc2)c2ccccc2)c1.Cl` (stereo not drawn) [Example 58, 4-{[(Diphenylmethyl)amino]carbonyl}-α-hexyl-1H-imidazole-1-aceticacid hydrochloride], for which, in the assay with angiotensin II receptor, the “Adrenal Glomerulosa (% Inhibition of Binding)” value was 69%. In addition, the Kb in assay [1] (setting [2]) is 4.27 µM.

On to `CCCCCCC(C(=O)O)n1cnc(NC(=O)C2(O)c3ccccc3-c3ccccc32)c1` (stereo not drawn) [Example 59, α-Hexyl-4-[(9-hydroxy-9H-fluoren-9-ylcarbonyl)-amino]-1H-imidazole-1-acetic acid], for which the “Adrenal Glomerulosa (% Inhibition of Binding)” value in the assay on angiotensin II receptor is reported as 67%. The Kb in assay [1] was 3.09 µM.

As to `CCCCCC(CO)n1cnc(NC(=O)c2ccccc2C(=O)O)c1` (stereo not drawn) [Example 60, 2-[({1-[1-(Hydroxymethyl)hexyl]-1H-imidazol-4-yl}amino)carbonyl]benzoic acid], the “Adrenal Glomerulosa (% Inhibition of Binding)” value in the assay with angiotensin II receptor came to 15%. Moreover, the Kb in assay [1] (setting [2]) was 8.32 µM.

Regarding `CCCCCCC(C(=O)O)n1cnc(NC(=O)c2ccccc2O)c1` (stereo not drawn) [Example 76, α-Hexyl-4-[(2-hydroxybenzoyl)amino]-1H-imidazole-1-acetic acid], the “Adrenal Glomerulosa (% Inhibition of Binding)” value in the assay with angiotensin II receptor is reported as 35%. Also, in assay [1] (setting [2]), the Kb is 1.26 µM.

With `CCCCCCC(C(=O)O)n1cnc(NC(=O)c2c(O)ccc3ccccc23)c1` (stereo not drawn) [Example 77, α-Hexyl-4-{[(2-hydroxy-1-naphthalenyl)-carbonyl]amino}imidazole-1-acetic acid], the “Adrenal Glomerulosa (% Inhibition of Binding)” value in the assay with angiotensin II receptor is recorded as 36%. In addition, the Kb in assay [1] (setting [2]) was 5.5 µM.

Turning to `CCCCCCC(C(=O)O)n1cnc(NC(=O)c2cccc(O)c2)c1` (stereo not drawn) [Example 78, α-Hexyl-4-[(3-hydroxybenzoyl)amino]-1H-imidazole-1-acetic acid hemihydrate], in the assay on angiotensin II receptor, the “Adrenal Glomerulosa (% Inhibition of Binding)” value is listed as 21%. In addition, the Kb in assay [1] (setting [2]) was 7.94 µM.

In the case of `CCCCCCC(C(=O)O)n1cnc(NC(=O)c2ccc(O)c(O)c2)c1` (stereo not drawn) [Example 79, α-Hexyl-4-[(3,4-dihydroxybenzoyl)amino]-1H-imidazole-1-acetic acid (1.75 hydrate)], in the assay on angiotensin II receptor, the “Adrenal Glomerulosa (% Inhibition of Binding)” value is reported as 18%. Further, the Kb in assay [1] (setting [2]) is 11 µM.

With `CCCCCCC(C(=O)O)n1cnc(C(=O)Nc2ccccc2CO)c1.Cl` (stereo not drawn) [Example 83, α-Hexyl-4-({[2-(hydroxymethyl)phenyl]-amino}carbonyl)-1H-imidazole-1-acetic acid hydrochloride], in the assay with angiotensin II receptor, the “Adrenal Glomerulosa (% Inhibition of Binding)” value was 53%. Also, in assay [1] (setting [2]), the Kb was 3.89 µM.

With `CCCCCCC(C(=O)O)n1cnc(C(=O)Nc2ccccc2CCCCO)c1.Cl` (stereo not drawn) [Example 84, α-Hexyl-4-({[2-(4-hydroxybutyl)phenyl]-amino}carbonyl)-1H-imidazole-1-acetic acid hydrochloride], the “Adrenal Glomerulosa (% Inhibition of Binding)” value with angiotensin II receptor is given as 77%. In addition, in assay [1] (setting [2]), the Kb is 2.29 µM.

For `CCCCCCC(C(=O)O)n1cnc(C(=O)Nc2cccc(CO)c2)c1.Cl` (stereo not drawn) [Example 85, α-Hexyl-4-({[3-(hydroxymethyl)phenyl]-amino}carbonyl)-1H-imidazole-1-acetic acid hydrochloride], the “Adrenal Glomerulosa (% Inhibition of Binding)” value in the assay with angiotensin II receptor is 0%. The Kb in assay [1] (setting [2]) is 15.8 µM.

As for `CCCCCCC(C(=O)O)n1cnc(C(=O)Nc2ccccc2CCO)c1.Cl` (stereo not drawn) [Example 86, α-Hexyl-4-({[2-(2-hydroxyethyl)phenyl]-amino}carbonyl)-1H-imidazole-1-acetic acid hydrochloride], the “Adrenal Glomerulosa (% Inhibition of Binding)” value with angiotensin II receptor came to 57%. Besides, the Kb in assay [1] (setting [2]) is 3.24 µM.

For `CCCCCCC(C(=O)O)n1cnc(C(=O)Nc2ccc(CCO)cc2)c1.Cl` (stereo not drawn) [Example 87, α-Hexyl-4-({[4-(2-hydroxyethyl)phenyl]-amino}carbonyl)-1H-imidazole-1-acetic acid hydrochloride], in the assay on angiotensin II receptor, the “Adrenal Glomerulosa (% Inhibition of Binding)” value came to 7%. Further, the Kb in assay [1] (setting [2]) was 23.4 µM.

`CCCCC(C(=O)O)n1cnc(C(=O)Nc2ccccc2O)c1.Cl` (stereo not drawn) [Example 89, α-Butyl-4-{[(2-hydroxyphenyl)amino]-carbonyl}-1H-imidazole-1-acetic acid hydrochloride]: in the assay with angiotensin II receptor, the “Adrenal Glomerulosa (% Inhibition of Binding)” value stood at 54%. Moreover, the Kb in assay [1] (setting [2]) is 38.9 µM.

Consider `CCCCCCC(C(=O)O)c1ccc(Cc2ccccc2C(=O)O)cc1` (stereo not drawn) [Example 94, 4-[(2-Carboxyphenyl)methyl]-α-hexyl-benzeneacetic acid], for which the “Adrenal Glomerulosa (% Inhibition of Binding)” value with angiotensin II receptor was found to be 58%. The Kb in assay [1] (setting [2]) is 1.66 µM.

As to `CCCCCCC(C(=O)O)n1cnc(NC(=O)c2cccc(N)c2C(=O)O)c1` (stereo not drawn) [Example 96, α-Hexyl-4-[(3-amino-2-carboxybenzoyl)amino]-1H-imidazole-1-aceticacid], the “Adrenal Glomerulosa (% Inhibition of Binding)” value in the assay on angiotensin II receptor came out at 59%. Also, the Kb in assay [1] (setting [2]) was 0.372 µM.
